17 molecules from patent US20230150986A1, “ANTAGONISTS OF THE MUSCARINIC ACETYLCHOLINE RECEPTOR M4” (Vanderbilt University, priority 2019, published 2023) can be followed below.

SMILES strings stand for the structures.

What is called IC50 is the point on the concentration scale where inhibition reaches its midpoint.

This experiment deals with T1, Human M4 (Homo sapiens, UniProt P08173).
T1 construct: Human or rat M4 cDNA, along with the chimeric G protein Gq,5, were transfected into Chinese hamster ovary (CHO-K1) cells; expressed in transfected cells; host or cells: CHO-K1 (M4/Gqi5/CHO)
T1 sequence (P08173 1-479): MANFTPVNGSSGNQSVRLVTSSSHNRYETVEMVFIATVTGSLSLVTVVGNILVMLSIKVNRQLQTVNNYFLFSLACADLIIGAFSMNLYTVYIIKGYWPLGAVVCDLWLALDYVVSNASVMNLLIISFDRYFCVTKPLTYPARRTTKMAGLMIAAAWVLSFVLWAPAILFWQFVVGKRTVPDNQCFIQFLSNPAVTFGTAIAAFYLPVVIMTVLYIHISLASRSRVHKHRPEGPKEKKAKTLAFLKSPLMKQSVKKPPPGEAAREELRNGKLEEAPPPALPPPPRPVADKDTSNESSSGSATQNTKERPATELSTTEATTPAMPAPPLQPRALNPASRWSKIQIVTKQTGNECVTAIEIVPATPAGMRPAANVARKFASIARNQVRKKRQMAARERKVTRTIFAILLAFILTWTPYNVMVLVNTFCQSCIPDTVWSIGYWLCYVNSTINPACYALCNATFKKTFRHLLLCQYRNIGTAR
The experiment is described as follows: mAChR M4 cell-based functional assay (calcium flux, decrease of EC80 acetylcholine response). To be noted: for Human M4 Emin: % ACh maximum at 30 μM; for IC50: CHO-K1 cells with human M4 and Gqi5, EC80 acetylcholine. As for the experimental part: Human or rat M4 cDNA, along with the chimeric G protein Gq,5, were transfected into Chinese hamster ovary (CHO-K1) cells purchased from the American Type Culture Collection using Lipofectamine2000. M4/Gqi5/CHO cells were grown in Ham's F-12 medium containing 10% heat-inactivated fetal bovine serum (FBS), 20 mM HEPES, 500 μg/mL G^418 sulfate, and 200 μg/mL Hygromycin B.
For high throughput measurement of agonist-evoked increases in intracellular calcium, CHO-K1 cells stably expressing muscarinic receptors were plated in growth medium lacking G418 and hygromycin at 15,000 cells/20 μL/well in Greiner 384-well black-walled, tissue culture (TC)-treated, clear-bottom plates (VWR). Cells were incubated overnight at 37° C. and 5% CO2. The next day, cells were washed using an ELX 405 (BioTek) with assay buffer; the final volume was then aspirated to 20 μL. Next, 20 μL of a 2.3 μM stock of Fluo-4/acetoxymethyl ester (Invitrogen, Carlsbad, Calif.), prepared as a 2.3 mM stock in DMSO and mixed in a 1:1 ratio with 10% (w/v) Pluronic F-127 and diluted in assay buffer, was added to the wells and the cell plates were incubated for 50 min at 37° C. and 5% CO2. Dye was removed by washing with the ELX 405 and the final volume was aspirated to 20 μL. Compound master plates were formatted in a 10 point concentration-response curve (CRC) format (1:3 dilutions) in 100% DMSO with a starting concentration of 10 or 1 mM using a BRAVO liquid handler (Agilent). Test compound CRCs were then transferred to daughter plates (240 nL) using the Echo acoustic plate reformatter (Labcyte, Sunnyvale, Calif.) and then diluted into assay buffer (40 μL) to a 2× stock using a Thermo Fisher Combi (Thermo Fisher Scientific, Waltham, Mass.).
Calcium flux was measured using the Functional Drug Screening System (FDSS) 6000 or 7000 (Hamamatsu Corporation, Tokyo, Japan) as an increase in the fluorescent static ratio. Compounds were applied to cells (20 μL, 2×) using the automated system of the FDSS at 2 seconds into the protocol and the data were collected at 1 Hz. At 143 s, 10 μL of an EC20 concentration of the muscarinic receptor agonist acetylcholine was added (5×), followed by the addition of […] of an EC80 concentration of acetylcholine at the 268 s time point (5×). Agonist activity was analyzed as a concentration-dependent increase in calcium mobilization upon compound addition. Positive allosteric modulator activity was analyzed as a concentration-dependent increase in the EC2o acetylcholine response. Antagonist activity was analyzed as a concentration-dependent decrease in the EC80 acetylcholine response; for the purposes of the tables herein, an IC50 (inhibitory concentration 50) was calculated as a concentration-dependent decrease of the response elicited by an EC80 concentration of acetylcholine. Concentration-response curves were generated using a four-parameter logistical equation in XLFit curve fitting software (IDBS, Bridgewater, N.J.) for Excel (Microsoft, Redmond, Wash.) or Prism (GraphPad Software, Inc., San Diego, Calif.) or the Dotmatics software platform (Dotmatics, Bishop's Stortford, UK).
Compounds were synthesized as described above. Activity (IC50 and Emin) was determined in the mAChR M4 cell-based functional assay as described above and the data are shown in Table 2.
For orientation: Calcium assays in cells follow changes in intracellular calcium, usually with a dye or a luminescent sensor.

For `Fc1cc(F)c(F)c(-c2ccc(N[C@@H]3C[C@H]4CN(CC5CCOCC5)C[C@H]4[C@@H]3F)nn2)c1` (racemic) [Compound 86, (3aR,4R,5S,6aS)-4-fluoro-2-((tetrahydro-2H-pyran-4-yl)methyl)-N-(6-(2,3,5-trifluorophenyl)pyridazin-3-yl)octahydrocyclopenta[c]pyrrol-5-amine and (3aS,4S,5R,6aR)-4-fluoro-2-((tetrahydro-2H-pyran-4-yl)methyl)-N-(6-(2,3,5-trifluorophenyl)pyridazin-3-yl)octahydrocyclopenta[c]pyrrol-5-amine], the “Human M4 Emin” value was 2% and the 50% inhibitory concentration (IC50) came out at 3.1 nM.
Consider `C[C@]12C[C@H](Nc3ccc(-c4cc(F)cc(F)c4F)nn3)C[C@H]1CN(CC1CCOCC1)C2` (racemic) [Compound 88, (3aR,5S,6aS)-3a-methyl-2-((tetrahydro-2H-pyran-4-yl)methyl)-N-(6-(2,3,5-trifluorophenyl)pyridazin-3-yl)octahydrocyclopenta[c]pyrrol-5-amine and (3aS,5R,6aR)-3a-methyl-2-((tetrahydro-2H-pyran-4-yl)methyl)-N-(6-(2,3,5-trifluorophenyl)pyridazin-3-yl)octahydrocyclopenta[c]pyrrol-5-amine], for which the “Human M4 Emin” value was determined as 17% and the IC50 is 1.2 nM.
As to `Fc1cc(F)c(F)c(-c2ccc(N[C@H]3C[C@@H]4CN(CC5CCCOC5)C[C@@H]4C3)nn2)c1` (single isomer, unassigned) [Compound 24], the “Human M4 Emin” value turned out to be 3% and the IC50 amounted to 13.7 nM.
As to `Fc1cc(F)c(F)c(-c2ccc(N[C@H]3C[C@@H]4CN(CC5CCCOC5)C[C@@H]4C3)nn2)c1` (single isomer, unassigned) [Compound 25], the “Human M4 Emin” value came out at 3% and the IC50 turned out to be 5.7 nM.
Turning to `Fc1cc(F)c(F)c(-c2ccc(N[C@H]3C[C@@H]4CN(CC5CCCCO5)C[C@@H]4C3)nn2)c1` (single isomer, unassigned) [Compound 26], the “Human M4 Emin” value was found to be 3% and the IC50 was 1.24 nM.
Taken in the same sequence, the figures for `Fc1cc(F)c(F)c(-c2ccc(N[C@H]3C[C@@H]4CN(CC5CCCCO5)C[C@@H]4C3)nn2)c1` (single isomer, unassigned) [Compound 27] were 4% and 2.14 nM.
For `Fc1cc(F)c(F)c(-c2ccc(N[C@H]3C[C@@H]4CN(CC5CCCCC5)C[C@@H]4C3)nn2)c1` [Compound 3, (3aR,5s,6aS)-2-(cyclohexylmethyl)-N-(6-(2,3,5-trifluorophenyl)pyridazin-3-yl)octahydrocyclopenta[c]pyrrol-5-amine], the “Human M4 Emin” value is 3% and the IC50 was 57.5 nM.
On to `Fc1cc(F)c(F)c(-c2ccc(N[C@H]3C[C@@H]4CN(CCC5CCOCC5)C[C@@H]4C3)nn2)c1` [Compound 4, (3aR,5s,6aS)-2-(2-(tetrahydro-2H-pyran-4-yl)ethyl)-N-(6-(2,3,5-trifluorophenyl)pyridazin-3-yl)octahydrocyclopenta[c]pyrrol-5-amine], for which the “Human M4 Emin” value worked out at 4% and the IC50 was 3.09 nM.
For `Fc1cc(F)c(F)c(-c2ccc(N[C@H]3C[C@@H]4CN(C5CCC6(CCOCC6)CC5)C[C@@H]4C3)nn2)c1` [Compound 5, (3aR,5s,6aS)-2-(3-oxaspiro[5.5]undecan-9-yl)-N-(6-(2,3,5-trifluorophenyl)pyridazin-3-yl)octahydrocyclopenta[c]pyrrol-5-amine], the “Human M4 Emin” value was determined as 3% and the IC50 worked out at 13.5 nM.
For the molecule `Fc1cc(F)c(F)c(-c2ccc(N[C@H]3C[C@@H]4CN(C5CCCCCC5)C[C@@H]4C3)nn2)c1` [Compound 6, (3aR,5s,6aS)-2-cycloheptyl-N-(6-(2,3,5-trifluorophenyl)pyridazin-3-yl)octahydrocyclopenta[c]pyrrol-5-amine], the “Human M4 Emin” value was 3% and the half-inhibitory concentration (IC50) is 20.9 nM.
As for `CC1(C)CC(N2C[C@H]3C[C@H](Nc4ccc(-c5cc(F)cc(F)c5F)nn4)C[C@H]3C2)CC(C)(C)O1` [Compound 7, (3aR,5s,6aS)-2-(2,2,6,6-tetramethyltetrahydro-2H-pyran-4-yl)-N-(6-(2,3,5-trifluorophenyl)pyridazin-3-yl)octahydrocyclopenta[c]pyrrol-5-amine], the “Human M4 Emin” value stood at 4% and the IC50 is 215 nM.
Taken in the same sequence, the figures for `OC1(CN2C[C@H]3C[C@H](Nc4ccc(-c5cc(F)cc(F)c5F)nn4)C[C@H]3C2)CCCCC1` [Compound 9, 1-(((3aR,5s,6aS)-5-((6-(2,3,5-trifluorophenyl)pyridazin-3-yl)amino)hexahydrocyclopenta[c]pyrrol-2(1H)-yl)methyl)cyclohexan-1-ol] were 3% and 6.09 nM.
The matching figures for `CC(C1CCOCC1)N1C[C@H]2C[C@H](Nc3ccc(-c4cc(F)cc(F)c4F)nn3)C[C@H]2C1` (stereo partly drawn) [Compound 10, (3aR,5s,6aS)-2-(1-(tetrabydro-2H-pyran-4-yl)ethyl)-N-(6-(2,3,5-trifluorophenyl)pyridazin-3-yl)octahydrocyclopenta[c]pyrrol-5-amine]: 4% and 5.7 nM.
For `CC1(CN2C[C@H]3C[C@H](Nc4ccc(-c5cc(F)cc(F)c5F)nn4)C[C@H]3C2)CCOCC1` [Compound 11, (3aR,5s,6aS)-2-((4-methyltetrahydro-2H-pyran-4-yl)methy)-N-(6-(2,3,5-trifluorophenyl)pyridazin-3-yl)octahydrocyclopenta[c]pyrrol-5-amine], the “Human M4 Emin” value is reported as 3% and the IC50 stood at 4.63 nM.
Taken in the same sequence, the figures for `[2H]C(C)(C1CCOCC1)N1C[C@H]2C[C@H](Nc3ccc(-c4cc(F)cc(F)c4F)nn3)C[C@H]2C1` (stereo partly drawn) [Compound 12, (3aR,5s,6aS)-2-(1-(tetrahydro-2H-pyran-4-yl)ethyl-1-d)-N-(6-(2,3,5-trifluorophenyl)pyridazin-3-yl)octahydrocyclopenta[c]pyrrol-5-amine] were 3% and 8.64 nM.
`CC(c1ccccn1)N1C[C@H]2C[C@H](Nc3ccc(-c4cc(F)cc(F)c4F)nn3)C[C@H]2C1` (stereo partly drawn) [Compound 13, (3aR,5s,6aS)-2-(1-(pyridin-2-yl)ethyl)-N-(6-(2,3,5-trifluorophenyl)pyridazin-3-yl)octahydrocyclopenta[c]pyrrol-5-amine]: the “Human M4 Emin” value came to 3% and the IC50 stood at 74.6 nM.
`[2H]C([2H])(N1C[C@H]2C[C@H](Nc3ccc(-c4cc(F)cc(F)c4F)nn3)C[C@H]2C1)C1(C)CCOCC1` [Compound 14, (3aR,5s,6aS)-2-((4-methyltetrahydro-2H-pyran-4-yl)methyl-d2)-N-(6-(2,3,5-trifluorophenyl)pyridazin-3-yl)octahydrocyclopenta[c]pyrrol-5-amine]: the “Human M4 Emin” value is on record as 2% and the IC50 was 6.13 nM.
